Our source for the Emax values is EP2629618B1, “AGROCHEMICAL CO[…]” (Syngenta Limited, priority 2010, dated 2012).

Read-outs that look alike come from different tables or passages of the source.

The subject of the assay is Septoria tritici. Description: curative testing against Septoria tritici on wheat plants in pots, visual score of disease severity. Format: in vivo. The following applies: Zymoseptoria tritici, adjuvant (if any) 0.1 %w/v, spray 200l/ha, read-out: % Efficacy; for Emax at 3 µg/mL: isopyrazam 3 mg per litre; for Emax at 10 µg/mL: isopyrazam 10 mg per litre; for Emax at 30 µg/mL: isopyrazam 30 mg per litre; for Emax at 100 µg/mL: isopyrazam 100 mg per litre. How it is done: The test data relate to curative testing against Septoria tritici on wheat. The wheat plants in pots are inoculated 3 to 5 days prior to spraying as indicated. The isopyrazam is formulated as an aqueous suspension concentrate formulation containing 250 g/l of isopyrazam. The suspension concentrate formulation is diluted to the concentrations of isopyrazam shown in the Tables with water prior to spraying. When adjuvant is included it is used at 0.1 %w/v in the spray dilution unless otherwise indicated. An inert non-adjuvant additive is included in all treatments to provide spray retention. The spray application is 200l/ha.
Three assessments are made per pot of wheat with […] fully randomised. The three replicate pots are visually assessed and given a score of disease severity. The percent efficacy corresponds to the reduction in average disease severity in the treated pots compared to the untreated pots as a percentage of the average disease severity of the untreated pots. Each Table represents a side-by-side experiment.

Setting [1] is: Table 2, treatment 4 days, assessment 18 days after inoculation.
[2] abbreviates: Table 3, treatment 4 days, assessment 17 days after inoculation.
Setting [3] is: Table 4, treatment 4 days, assessment 18 days after inoculation.
[4] abbreviates: Table 5, treatment 3 days, assessment 19 days after inoculation.
The mark [5] stands for this setting: Table 6, treatment 4 days, assessment 17 days after inoculation.
Where [6] appears, read: Table 7, treatment 4 days, assessment 18 days after inoculation.

Regarding `CC(C)C1C2CCC1c1c(NC(=O)c3cn(C)nc3C(F)F)cccc12` (stereo not drawn) [isopyrazam, Isopyrazam], the Emax at 3 µg/mL under setting [1] stood at 32%; the Emax at 3 µg/mL under setting [2] was 17.9%; the Emax at 3 µg/mL under setting [3] is 41%; the Emax at 3 µg/mL under setting [4] stood at 8.8%; the Emax at 3 µg/mL under setting [5] stood at 9.1%; the Emax at 3 µg/mL under setting [6] amounted to 5.1%. Besides, the Emax at 10 µg/mL was 36% under setting [1]; -0.53% under setting [2]; 39% under setting [3]; 9.4% under setting [4]; 6.8% under setting [5]; 15% under setting [6]. Further, the Emax at 30 µg/mL is, setting by setting: under setting [1], 47%; under setting [2], 10%; under setting [3], 29%; under setting [4], 14%; under setting [5], 19%; under setting [6], -18%. For the same compound, the Emax at 100 µg/mL runs as follows: under setting [1], 41%; under setting [2], 8.9%; under setting [3], 25%; under setting [4], 0.59%; under setting [5], 14%; under setting [6], 32%.
